# Results reported in ChEMBL document CHEMBL1201862, “PubChem BioAssay data set” (2004).
#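 Protocol summary: plate cells (96-well), add compound at 5 concentrations, incubate 48 h, interpolate endpoints linearly. GI50 = concentration required for 50% inhibition of growth.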 Active and inactive are the calls of the source. Rule as the data show it: active = GI50 up to about 1.1 µM and inactive = higher.
# Tests used:
# Assay in all cases: NCI anticancer screen, dose series, 48 h
# [1] = system: SK-MEL-28
# [2] = system: MDA-MB-231
# [3] = system: UACC-62
# [4] = system: A498
# [5] = system: COLO 205
# [6] = system: NCI-H522
# [7] = system: SF-295
# [8] = system: HCT-15
# [9] = system: MOLT-4
# [10] = system: OVCAR-8
# [11] = system: ACHN
# [12] = system: UACC-257
# [13] = system: T47D
# [14] = system: SNB-19
# [15] = system: CCRF-CEM
# [16] = system: CAKI-1
# [17] = system: OVCAR-4
# [18] = system: K562
# [19] = system: KM12
# [20] = system: SF-268
Compound,GI50 [1],GI50 [2],GI50 [3],GI50 [4],GI50 [5],GI50 [6],GI50 [7],GI50 [8] [µM],GI50 [9],GI50 [10],GI50 [11],GI50 [12],GI50 [13],GI50 [14],GI50 [15],GI50 [16],GI50 [17],GI50 [18],GI50 [19],GI50 [20]
CN1CCc2ccccc2C1Cc1ccccc1NC(=O)c1sc2ccccc2c1Cl (stereo not given),> 100 µM (inactive),> 100 µM (inactive),> 100 µM (inactive),> 100 µM (inactive),> 100 µM (inactive),> 100 µM (inactive),> 100 µM (inactive),> 100,> 100 µM (inactive),> 100 µM (inactive),> 100 µM (inactive),> 100 µM (inactive),> 100 µM (inactive),> 100 µM (inactive),50.9 µM (inactive),> 100 µM (inactive),> 100 µM (inactive),> 100 µM (inactive),> 100 µM (inactive),> 100 µM (inactive)
CN(C)Cc1c[nH]c2ncnc(O)c12,46.1 µM (inactive),72.4 µM (inactive),20.9 µM (inactive),> 100 µM (inactive),35.8 µM (inactive),> 100 µM (inactive),> 100 µM (inactive),35.5,7.8 µM (inactive),29 µM (inactive),38 µM (inactive),23 µM (inactive),33.1 µM (inactive),70.1 µM (inactive),19.2 µM (inactive),19.8 µM (inactive),32.8 µM (inactive),20.7 µM (inactive),> 100 µM (inactive),73.1 µM (inactive)
CCCCC/C=C1\CC(CO)(COC(=O)CC(C(C)C)C(C)C)OC1=O (stereo not given),16.1 µM (inactive),17.9 µM (inactive),19.4 µM (inactive),15.8 µM (inactive),3.04 µM (inactive),17.8 µM (inactive),5.52 µM (inactive),19.9,15.2 µM (inactive),18.2 µM (inactive),13 µM (inactive),21.1 µM (inactive),23.1 µM (inactive),15 µM (inactive),11.8 µM (inactive),9.42 µM (inactive),30 µM (inactive),6.84 µM (inactive),11.4 µM (inactive),17.9 µM (inactive)
NS(=O)(=O)OCCCCCCCOS(N)(=O)=O,535 µM (inactive),445 µM (inactive),61.4 µM (inactive),377 µM (inactive),394 µM (inactive),259 µM (inactive),> 92.9 µM (inactive),349,24.2 µM (inactive),221 µM (inactive),64.9 µM (inactive),451 µM (inactive),246 µM (inactive),275 µM (inactive),46.8 µM (inactive),84.3 µM (inactive),409 µM (inactive),347 µM (inactive),379 µM (inactive),130 µM (inactive)
CCOn1cc(C[C@@]2(O)C(=O)OC3[C@@H](O)CO[C@@]32O)c2ccccc21 (stereo not given in full),> 100 µM (inactive),> 100 µM (inactive),46.7 µM (inactive),1.94 µM (inactive),> 100 µM (inactive),> 100 µM (inactive),> 100 µM (inactive),> 100,> 100 µM (inactive),> 100 µM (inactive),> 100 µM (inactive),> 100 µM (inactive),> 100 µM (inactive),> 100 µM (inactive),36.5 µM (inactive),> 100 µM (inactive),> 100 µM (inactive),> 100 µM (inactive),> 100 µM (inactive),> 100 µM (inactive)
Cc1c(/C=N/NC(=S)Nc2ccc(Cl)cc2)c(=O)n(-c2ccccc2)n1C,> 100 µM (inactive),0.637 µM (active),> 48.5 µM (inactive),22.5 µM (inactive),> 71.1 µM (inactive),7.08 µM (inactive),18.4 µM (inactive),17.9,> 60.8 µM (inactive),24.9 µM (inactive),16.1 µM (inactive),> 83.6 µM (inactive),46.6 µM (inactive),27.9 µM (inactive),> 75.2 µM (inactive),9.75 µM (inactive),24.5 µM (inactive),> 100 µM (inactive),> 47.6 µM (inactive),15.8 µM (inactive)
CN(CCNC(=O)c1cn(C)c2c1ccc1cc(Cl)ccc12)CCNC(=O)c1cn(C)c2c1ccc1cc(Cl)ccc12,5.85 µM (inactive),6.62 µM (inactive),5.97 µM (inactive),3.71 µM (inactive),1.2 µM (inactive),1.85 µM (inactive),1.86 µM (inactive),1.78,5.01 µM (inactive),6 µM (inactive),5.25 µM (inactive),6.38 µM (inactive),2.13 µM (inactive),1.83 µM (inactive),5.74 µM (inactive),1.6 µM (inactive),1.66 µM (inactive),5.96 µM (inactive),1.67 µM (inactive),1.77 µM (inactive)
